Experimental data from article PMC11904948, “Peptide‐Drug Conjugate for Therapeutic Reprogramming of Tumor‐Associated Macrophages in Breast Cancer” (Advanced Science, 2025).

Columns and labels:
[1] = system: BMDM obtained from C57/Bl6 (B6) mice; experiment: Flow cytometry and real-time PCR on B6 BMDM; format: cell-based, mouse
Protocol: At the mRNA level, MACTIDE‐V induced a clear increase in Il‐12, Chil3 and Nos2 genes, (Figure 6D, left panel). […] To further investigate whether the effect of MACTIDE‐V was mediated by YAP targeting, we analyzed a set of 7 YAP‐regulated genes (Figure 6D, right panel).
Figure S6. In vitro effect of MACTIDE-V on B6 mice-derived BMDMs. (A) Flow cytometry on BMDMs 48 h after treatment. GeoMean of MHC II in B6 BMDM, n=4 independent experiments. *p≤0.05. (B) Heatmap of the mRNA expression of genes involved in the functional activation of BMDM, measured by real-time PCR 48 h after treatment in B6 BMDM, n=2 independent experiments.

orthotopic 4T1.2 tumors = experiment: MACTIDE-V monotherapy in orthotopic 4T1.2; format: in vivo, Balb/c mice
Protocol: We evaluated the effect of MACTIDE‐V on tumor progression and metastasis in the highly metastatic orthotopic 4T1.2 model.^[ [33] ^] When tumors reached 55 mm^3 we began the treatment with MACTIDE‐V or CtrlPep‐V every other day until day 23, using the same dose used in section 5. […] No body weight loss was detected in any of the groups (Figure S7, Supporting Information).
Figure 7 MACTIDE‐V slows tumor growth and suppresses lung metastasis in orthotopic 4T1.2. 4T1.2 bearing mice were treated with 9 doses of CtrlPep‐V, MACTIDE‐V (1 mg Kg^−1 in Verteporfin per dose), or PBS i.p. every other day, while monitoring the primary tumor volume (A). Mice were sacrificed on day 25, tumor weights were measured (B) and pulmonary metastasis areas were quantified from H&E sections (C). D–G) Tumor cell suspensions were analyzed by flow cytometry (n = 4 per group). H) Representative mIHC images of PBS, CtrlPep‐V, and MACTIDE‐V treated tumors, scale bar = 100 µm. I) CD8^+ T cells, CD4^+ T cells, and Treg density obtained from mIHC images (n = 6 mice/group), with every dot representing the mean cell density of each tumor obtained from 20 images. Median ± interquartile range. One‐way ANOVA with multiple comparisons, ^* p ≤ 0.05, ^** p ≤ 0.01.
5×10^5 4T1.2 cells in 50 µL of PBS was injected subcutaneously to 4th mammary fat pad. On day 7, mice were sorted into groups based on tumor volume, ≈55—60 mm^3 calculated based on the formula shown above. Mice were treated every other day with 500 µL of MACTIDE‐V, CtrlPep‐V (30 nmol), and PBS, 9 injections in total, n = 10 mice/group. The cumulative Verteporfin dose was 9 mg kg^−1. The last injection was on day 23. Four mice from each group were sacrificed on day 25 through anesthetic overdose and their tumors were analyzed by flow cytometry (FC) and mIHC. The rest of the mice were left to continue in the study with the initial intention of performing a survival study, however, all of these mice were sacrificed within 5 days based on their tumor size (above 1500 mm^3) or cachexia.
For FC, mice were not perfused, the tumors were cut into small pieces, digested using 10 mL of collagenase IV (200 U mL^−1, Gibco, catalog no.17104019), dispase (0.6 U mL^−1, Gibco, catalog no. 17105‐041) and DNase I (15 U mL^−1, AppliChem, catalog no. A3778) mixture on a rotating platform for up to 60 min at 37 °C, pipetting every 10 min. Red blood cells were lysed using 3 mL of ammonium‐chloride‐potassium lysis buffer. After that, cells were centrifuged (350×g, 7 min, +4 °C), filtered (100 µm cell strainer, Falcon, catalog no. 352360), and counted using the bright‐field mode of LUNA Automated Cell counter (Logos Biosystems). Cells were seeded at a concentration of 5×10^6 cells/100 µL of running buffer (RB) (1L of RB: 4 mL 0.5M EDTA + 100 mL FBS + the rest PBS) on the 96‐well conical bottom plate and incubated for 15 min in dark at RT in 50 µL of Zombie NIR Fixable Viability Kit (BioLegend). After that, 30 µL of blocking antibody (TruStain FcX, Biolegend) was added and incubated for 10 min in the dark at +4 °C. Then, to stain macrophages, 20 µL of antibody mixture was added, and incubated for 25 min in the dark at +4 °C after which 50 µL of RB was added, centrifuged, washed two times with 150 µL of RB, and taken up in 150 µL of RB. For intracellular staining, cells were fixed and permeabilized using the eBioscience Foxp3/Transcription Factor Staining Buffer Set (Thermofisher). Cells were then stained with 100 µL of antibody mixture and incubated for 40 min in the dark at RT. Cells were centrifuged, washed twice with 150 µL of RB, and resuspended in 150 µL of RB. Samples were analyzed using the SONY ID7000 spectral flow cytometer and the accompanying software (Table 4 ).
To determine the pulmonary metastatic area, lungs from MACTIDE‐V monotherapy were stained for hematoxylin and eosin according to the following protocol. […]

[2] = tumor flow cytometry, n = 4 per group

## Vert‐Ahx‐G(CTKSIPPIC)SPGAK‐OH (disulfide) [MACTIDE‐V]
[1]; flow cytometry 48 h after treatment, n = 4
  MHCII expression in B6 BMDM (GeoMean): increased MHCII expression
[1]; real-time PCR 48 h after treatment, n = 2
  inflammatory gene mRNA expression in B6 BMDM: upregulated the inflammatory genes Il‐1b, Il‐12 and Nos2
Orthotopic 4T1.2 tumors; 9 doses i.p. every other day, 30 nmol (1 mg Kg^−1 in Verteporfin per dose), 4 weeks after tumor induction, versus CtrlPep‐V and PBS
  primary tumor volume: significantly smaller tumor volumes
Orthotopic 4T1.2 tumors; 9 doses i.p. every other day, 1 mg Kg^−1 in Verteporfin per dose, area from H&E sections
  pulmonary metastasis: fewer pulmonary metastasis
Orthotopic 4T1.2 tumors; 9 doses i.p. every other day, 1 mg Kg^−1 in Verteporfin per dose, sacrifice day 25
  endpoint tumor weights: smaller endpoint tumor weights
Orthotopic 4T1.2 tumors; compared to CtrlPep‐V and PBS, n = 6 mice/group
  CD4^+ T cell density (mIHC): significant increase in CD4^+ T cell density
Orthotopic 4T1.2 tumors; n = 6 mice/group
  Treg density (mIHC): no differences in Treg density
Orthotopic 4T1.2 tumors; [2]
  MHC II^−CD206^+ subset of TAM/monocytes: decreased
  PD‐1 expression in CD8^+ and CD4^+ T cells: decrease in PD‐1 expression
  percentage of MHCII^+CD206^+ TAM/monocytes: increased
  tumor‐infiltrating B cells: no change
Orthotopic 4T1.2 tumors; tumor flow cytometry, with respect to CtrlPep‐V and PBS, n = 4 per group
  proportion of tumor‐infiltrating T cells and NK cells: rise in the proportion
